A word on the DC50: it is the concentration at which degradation of the target reaches its halfway point. The Dmax is the greatest extent of degradation seen.

Twelve molecules from US12559506B2, “Indazole based compounds and associated methods of use” (Arvinas Operations, Inc., priority 2021, dated 2026) can be followed below.

This experiment has as its target T1, LRRK2 (endogenous, HiBit tagged) (Homo sapiens, UniProt Q5S007).
T1 construct: endogenous in cells; host or cells: HEK293 cells with HiBit knock-in at the endogenous LRRK2 locus, stably expressing firefly luciferase
Nature of the experiment: Endogenous LRRK2 degradation assay, endogenous gene C-terminally HiBit-tagged in HEK293 cells (Nano-Glo Dual Luciferase). It is filed as cell-based. As to conditions: endogenous HiBit-tagged LRRK2 in HEK293 cells, 24 hours treatment. The method, boiled down: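 LRRK2-HiBit quantified via Nano-Glo Dual Luciferase in HEK293 knock-in cells co-expressing firefly luciferase, after 24 h exposure to compound (1 μM final top, 1:3, 11 points). Values normalised to DMSO median per plate and curve-fitted; Alamar Blue viability run alongside.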
A general note: HiBiT is a short tag that completes a luciferase, so light tracks the accessible tagged protein.

[1] abbreviates: read-out: **Endogenous WT Dmax (%).

Like-named read-outs stand apart in the source and are kept apart here.

T1 sequence (Q5S007 whole entry): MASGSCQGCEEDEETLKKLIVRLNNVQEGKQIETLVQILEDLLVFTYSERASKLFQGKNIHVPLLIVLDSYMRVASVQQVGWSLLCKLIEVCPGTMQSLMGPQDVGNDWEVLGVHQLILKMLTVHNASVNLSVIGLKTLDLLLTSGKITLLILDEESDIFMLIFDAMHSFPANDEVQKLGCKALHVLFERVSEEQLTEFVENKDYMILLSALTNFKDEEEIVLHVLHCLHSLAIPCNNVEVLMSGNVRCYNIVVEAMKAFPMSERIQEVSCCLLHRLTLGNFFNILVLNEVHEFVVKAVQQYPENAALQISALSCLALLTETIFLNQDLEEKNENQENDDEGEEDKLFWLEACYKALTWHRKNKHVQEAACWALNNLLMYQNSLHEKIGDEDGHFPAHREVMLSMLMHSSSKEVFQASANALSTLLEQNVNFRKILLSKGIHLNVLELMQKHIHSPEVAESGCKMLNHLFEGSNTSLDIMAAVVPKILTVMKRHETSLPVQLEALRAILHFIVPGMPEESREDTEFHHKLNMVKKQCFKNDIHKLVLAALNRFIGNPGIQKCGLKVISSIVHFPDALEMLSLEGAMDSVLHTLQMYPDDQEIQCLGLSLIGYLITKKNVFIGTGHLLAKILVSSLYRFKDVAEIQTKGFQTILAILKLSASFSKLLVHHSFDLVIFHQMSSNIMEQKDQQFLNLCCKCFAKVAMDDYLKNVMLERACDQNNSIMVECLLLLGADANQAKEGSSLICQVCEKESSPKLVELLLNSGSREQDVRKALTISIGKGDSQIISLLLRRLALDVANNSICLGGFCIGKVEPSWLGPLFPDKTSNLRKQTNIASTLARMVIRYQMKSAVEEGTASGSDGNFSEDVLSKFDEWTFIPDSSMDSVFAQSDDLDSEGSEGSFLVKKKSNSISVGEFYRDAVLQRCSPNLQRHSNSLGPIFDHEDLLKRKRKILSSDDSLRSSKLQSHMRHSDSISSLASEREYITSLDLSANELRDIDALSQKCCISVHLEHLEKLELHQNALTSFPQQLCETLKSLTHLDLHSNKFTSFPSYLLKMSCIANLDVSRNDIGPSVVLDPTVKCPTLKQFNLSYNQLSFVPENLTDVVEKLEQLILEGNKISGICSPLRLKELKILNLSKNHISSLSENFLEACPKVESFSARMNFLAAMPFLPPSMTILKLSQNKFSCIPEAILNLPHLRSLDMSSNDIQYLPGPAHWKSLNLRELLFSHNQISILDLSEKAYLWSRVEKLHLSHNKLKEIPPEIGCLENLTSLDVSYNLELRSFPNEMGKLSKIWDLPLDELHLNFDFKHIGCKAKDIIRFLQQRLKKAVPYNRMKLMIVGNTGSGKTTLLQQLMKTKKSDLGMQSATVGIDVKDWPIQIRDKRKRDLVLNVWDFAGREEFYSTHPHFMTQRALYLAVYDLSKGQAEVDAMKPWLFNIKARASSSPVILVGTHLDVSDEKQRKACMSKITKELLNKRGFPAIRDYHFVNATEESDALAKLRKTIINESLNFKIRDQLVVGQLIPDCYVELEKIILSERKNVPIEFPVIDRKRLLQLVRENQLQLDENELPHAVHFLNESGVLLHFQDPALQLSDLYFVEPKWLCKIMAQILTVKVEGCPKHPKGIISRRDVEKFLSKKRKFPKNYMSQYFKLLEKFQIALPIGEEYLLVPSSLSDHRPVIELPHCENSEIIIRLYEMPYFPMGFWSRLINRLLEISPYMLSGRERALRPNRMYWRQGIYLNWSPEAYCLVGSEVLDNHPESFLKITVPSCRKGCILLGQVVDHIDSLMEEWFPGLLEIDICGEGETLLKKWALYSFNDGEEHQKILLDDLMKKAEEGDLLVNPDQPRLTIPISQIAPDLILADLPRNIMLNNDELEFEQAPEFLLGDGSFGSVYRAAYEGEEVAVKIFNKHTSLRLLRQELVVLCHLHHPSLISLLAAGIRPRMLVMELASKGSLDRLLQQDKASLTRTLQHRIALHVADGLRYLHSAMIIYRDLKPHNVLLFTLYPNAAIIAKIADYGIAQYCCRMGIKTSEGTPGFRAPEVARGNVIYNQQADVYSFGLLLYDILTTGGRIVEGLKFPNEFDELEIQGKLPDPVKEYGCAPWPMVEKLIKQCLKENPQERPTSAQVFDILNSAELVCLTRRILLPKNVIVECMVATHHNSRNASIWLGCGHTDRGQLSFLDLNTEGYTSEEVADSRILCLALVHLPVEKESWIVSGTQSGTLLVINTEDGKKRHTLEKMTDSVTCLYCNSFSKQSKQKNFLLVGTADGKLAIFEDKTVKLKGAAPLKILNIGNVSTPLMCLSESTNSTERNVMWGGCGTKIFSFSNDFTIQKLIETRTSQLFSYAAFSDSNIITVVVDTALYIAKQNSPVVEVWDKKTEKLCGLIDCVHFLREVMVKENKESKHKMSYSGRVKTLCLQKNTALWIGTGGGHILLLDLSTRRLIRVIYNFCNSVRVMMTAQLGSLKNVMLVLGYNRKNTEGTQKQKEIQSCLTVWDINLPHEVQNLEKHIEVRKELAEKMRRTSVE

As to `CC1(Oc2ccc3n[nH]c(-c4cc(N5CCC(CN6C[C@H]7C[C@@H]6CN7CC6CCN(c7ccc8c(c7F)CN(C7CCC(=O)NC7=O)C8=O)CC6)CC5)ncn4)c3c2)CC1` (stereo partly drawn) [Compound 226, 3-[4-fluoro-5-(4-{[(1R,4R)-5-[(1-{6-[5-(1-methylcyclopropoxy)-2H-indazol-3-yl]pyrimidin-4-yl}piperidin-4-yl)methyl]-2,5-diazabicyclo[2.2.1]heptan-2-yl]methyl}piperidin-1-yl)-1-oxo-2,3-dihydro-1H-isoindol-2-yl]piperidine-2,6-dione], the 50% degradation concentration (DC50) (read-out: Endogenous WT DC50) is less than 10 nM. Further, the Dmax (read-out: Endogenous WT Dmax) was in the range of 50 to 70%.
As for `CC1(Oc2ccc3n[nH]c(-c4cc(N5CCC(O[C@H]6C[C@H](N7CC[C@@H](c8ccc9c(c8F)CN(C8CCC(=O)NC8=O)C9=O)[C@@H](F)C7)C6)CC5)ncn4)c3c2)CC1` (stereo partly drawn) [Compound 297, 3-{4-fluoro-5-[(3r,4s)-3-fluoro-1-[(1r,3r)-3-[(1-{6-[5-(1-methylcyclopropoxy)-2H-indazol-3-yl]pyrimidin-4-yl}piperidin-4-yl)oxy]cyclobutyl]piperidin-4-yl]-1-oxo-2,3-dihydro-1H-isoindol-2-yl}piperidine-2,6-dione], under setting [1], the greatest degradation seen (Dmax) lay within 50 to 70%. The DC50 (read-out: *Endogenous WT DC50) is less than 10 nM.
In the case of `COc1c(N2CCC(CN3CC[C@@H](OC4CCN(c5cc(-c6n[nH]c7ccc(OC8(C)CC8)cc67)ncn5)CC4)CC3(C)C)CC2)ccc2c1CN(C1CCC(=O)NC1=O)C2=O` (stereo partly drawn) [Compound 319, 3-(5-(4-(((R)-2,2-dimethyl-4-((1-(6-(5-(1-methylcyclopropoxy)-1H-indazol-3-yl)pyrimidin-4-yl)piperidin-4-yl)oxy)piperidin-1-yl)methyl)piperidin-1-yl)-4-methoxy-1-oxoisoindolin-2-yl)piperidine-2,6-dione], the Dmax under setting [1] is 50 to 70%. Moreover, for the setting “read-out: *Endogenous WT DC50”, the DC50 was less than 10 nM.
For `COc1c(N2CCC(CN3CCN(C[C@H]4CCN(c5cc(-c6n[nH]c7ccc(OC8(C)CC8)cc67)ncn5)C4)CC3)CC2)ccc2c1CN(C1CCC(=O)NC1=O)C2=O` (stereo partly drawn) [Compound 303, 3-(4-methoxy-5-{4-[(4-{[(3R)-1-{6-[5-(1-methylcyclopropoxy)-1H-indazol-3-yl]pyrimidin-4-yl}pyrrolidin-3-yl]methyl}piperazin-1-yl)methyl]piperidin-1-yl}-1-oxo-2,3-dihydro-1H-isoindol-2-yl)piperidine-2,6-dione], in that order: 50 to 70% and less than 10 nM.
For `C[C@@H]1CN(CC2CCN(c3cc(-c4n[nH]c5cnc(OC6(C)CC6)cc45)ncn3)CC2)CCN1CC1CCN(c2ccc3c(c2F)CN(C2CCC(=O)NC2=O)C3=O)CC1` (stereo partly drawn) [Compound 272, 3-[4-fluoro-5-(4-{[(2R)-2-methyl-4-[(1-{6-[5-(1-methylcyclopropoxy)-1H-pyrazolo[3,4-c]pyridin-3-yl]pyrimidin-4-yl}piperidin-4-yl)methyl]piperazin-1-yl]methyl}piperidin-1-yl)-1-oxo-2,3-dihydro-1H-isoindol-2-yl]piperidine-2,6-dione] the same measures were 50 to 70% and less than 10 nM.
For `COc1c(N2CCC(O[C@H]3C[C@H](CN4CCN(c5cc(-c6[nH]nc7ccc(OC8(C)CC8)cc67)ncn5)CC4)C3)CC2)ccc2c1CN(C1CCC(=O)NC1=O)C2=O` (stereo partly drawn) [Compound 293, 3-(4-methoxy-1-oxo-5-{4-[(1r,3r)-3-[(4-{6-[5-(1-methylcyclopropoxy)-2H-indazol-3-yl]pyrimidin-4-yl}piperazin-1-yl)methyl]cyclobutoxy]piperidin-1-yl}-2,3-dihydro-1H-isoindol-2-yl)piperidine-2,6-dione] the same measures were 50 to 70% and less than 10 nM.
For the molecule `COc1c(N2CCN(C[C@H]3CC[C@H](OC4CCN(c5cc(-c6n[nH]c7cc(F)c(OC8(C)CC8)cc67)ncn5)CC4)CC3)CC2)ccc2c1CN(C1CCC(=O)NC1=O)C2=O` (stereo partly drawn) [Compound 281, 3-[4-methoxy-1-oxo-5-(4-{[(1r,4r)-4-[(1-{6-[6-fluoro-5-(1-methylcyclopropoxy)-1H-indazol-3-yl]pyrimidin-4-yl}piperidin-4-yl)oxy]cyclohexyl]methyl}piperazin-1-yl)-2,3-dihydro-1H-isoindol-2-yl]piperidine-2,6-dione], the Dmax under setting [1] fell in the range of 50 to 70%. Besides, the DC50 (read-out: *Endogenous WT DC50) is less than 10 nM.
Turning to `CC1(Oc2ccc3[nH]nc(-c4cc(N5CCC(CN6C[C@@H]7C[C@H]6CN7CC6CCN(c7ccc8c(c7F)CN(C7CCC(=O)NC7=O)C8=O)CC6)CC5)ncn4)c3c2)CC1` (stereo partly drawn) [Compound 230, 3-[4-fluoro-5-(4-{[(1S,4S)-5-[(1-{6-[5-(1-methylcyclopropoxy)-1H-indazol-3-yl]pyrimidin-4-yl}piperidin-4-yl)methyl]-2,5-diazabicyclo[2.2.1]heptan-2-yl]methyl}piperidin-1-yl)-1-oxo-2,3-dihydro-1H-isoindol-2-yl]piperidine-2,6-dione], the half-maximal degradation concentration (DC50) (read-out: Endogenous WT DC50) was less than 10 nM. Also, the Dmax (read-out: Endogenous WT Dmax) fell in the range of 50 to 70%.
For the molecule `COc1c(N2CCC(CN3CCN(CC4CCN(c5cc(-c6n[nH]c7cnc(OC8(C)CC8)cc67)ncn5)CC4)[C@@H](C)C3)CC2)ccc2c1CN(C1CCC(=O)NC1=O)C2=O` (stereo partly drawn) [Compound 282, 3-[4-methoxy-5-(4-{[(3S)-3-methyl-4-[(1-{6-[5-(1-methylcyclopropoxy)-1H-pyrazolo[3,4-c]pyridin-3-yl]pyrimidin-4-yl}piperidin-4-yl)methyl]piperazin-1-yl]methyl}piperidin-1-yl)-1-oxo-2,3-dihydro-1H-isoindol-2-yl]piperidine-2,6-dione], under setting [1], the Dmax was no less than 70%. Also, the DC50 (read-out: *Endogenous WT DC50) is less than 10 nM.
For `CC1(Oc2ccc3[nH]nc(-c4cc(N5CCN(C[C@H]6CC[C@H](OC7CCN(c8ccc9c(c8F)CN(C8CCC(=O)NC8=O)C9=O)CC7)CC6)CC5(C)C)ncn4)c3c2)CC1` (stereo partly drawn) [Compound 383, 3-(5-(4-(((1r,4r)-4-((3,3-dimethyl-4-(6-(5-(1-methylcyclopropoxy)-1H-indazol-3-yl)pyrimidin-4-yl)piperazin-1-yl)methyl)cyclohexyl)oxy)piperidin-1-yl)-4-fluoro-1-oxoisoindolin-2-yl)piperidine-2,6-dione], the half-maximal degradation concentration (DC50) (read-out: Endogenous WT DC50) lay in the range of 50 to 100 nM. Besides, the greatest degradation seen (Dmax) (read-out: Endogenous WT Dmax) was less than 50%.
Turning to `C[C@H]1CN(CC2CCN(c3ccc4c(c3F)CN(C3CCC(=O)NC3=O)C4=O)CC2)CCN1CC1CCN(c2cc(-c3n[nH]c4cnc(OC5(C)CC5)cc34)ncn2)CC1` (stereo partly drawn) [Compound 266, 3-[4-fluoro-5-(4-{[(3S)-3-methyl-4-[(1-{6-[5-(1-methylcyclopropoxy)-1H-pyrazolo[3,4-c]pyridin-3-yl]pyrimidin-4-yl}piperidin-4-yl)methyl]piperazin-1-yl]methyl}piperidin-1-yl)-1-oxo-2,3-dihydro-1H-isoindol-2-yl]piperidine-2,6-dione], under setting [1], the Dmax was no less than 70%. Besides, the DC50 (read-out: *Endogenous WT DC50) was less than 10 nM.
For `COc1c(N2CCC(O[C@H]3C[C@H](N4CC5(CCN(c6cc(-c7[nH]nc8ccc(OC9(C)CC9)cc78)ncn6)CC5)C4)C3)CC2)ccc2c1CN(C1CCC(=O)NC1=O)C2=O` (stereo partly drawn) [Compound 347, 3-(4-methoxy-1-oxo-5-{4-[(1r,3r)-3-(7-{6-[5-(1-methylcyclopropoxy)-2H-indazol-3-yl]pyrimidin-4-yl}-2,7-diazaspiro[3.5]nonan-2-yl)cyclobutoxy]piperidin-1-yl}-2,3-dihydro-1H-isoindol-2-yl)piperidine-2,6-dione], in that order: 50 to 70% and less than 10 nM.
